In PubChem BioAssay (NCI):
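48-hour exposure; five concentrations; linearly interpolated endpoints. TGI marks complete inhibition of growth.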

Legend:
Test in all cases: NCI tumour cell line growth inhibition, 48 h
786-0 renal = tested on: 786-0 renal
A549 NSCLC = tested on: A549 NSCLC
ACHN renal = tested on: ACHN renal
CAKI-1 renal = tested on: CAKI-1 renal
CCRF-CEM leukemia = tested on: CCRF-CEM leukemia
COLO 205 colon = tested on: COLO 205 colon
DU-145 prostate = tested on: DU-145 prostate
EKVX NSCLC = tested on: EKVX NSCLC
HCC-2998 colon = tested on: HCC-2998 colon
HCT-116 colon = tested on: HCT-116 colon
HCT-15 colon = tested on: HCT-15 colon
HL-60(TB) leukemia = tested on: HL-60(TB) leukemia
HOP-62 NSCLC = tested on: HOP-62 NSCLC
HS 578T breast = tested on: HS 578T breast
HT29 colon = tested on: HT29 colon
IGROV1 ovarian = tested on: IGROV1 ovarian
K-562 leukemia = tested on: K-562 leukemia
KM12 colon = tested on: KM12 colon
LOX IMVI melanoma = tested on: LOX IMVI melanoma
M14 melanoma = tested on: M14 melanoma
MALME-3M melanoma = tested on: MALME-3M melanoma
MCF7 breast = tested on: MCF7 breast
MDA-MB-231 breast = tested on: MDA-MB-231 breast
MDA-MB-435 = tested on: MDA-MB-435
MDA-N = tested on: MDA-N
MOLT-4 leukemia = tested on: MOLT-4 leukemia
NCI-H226 lung = tested on: NCI-H226 lung
NCI-H23 lung = tested on: NCI-H23 lung
NCI-H460 lung = tested on: NCI-H460 lung
NCI-H522 lung = tested on: NCI-H522 lung
NCI/ADR-RES ovarian = tested on: NCI/ADR-RES ovarian
OVCAR-3 ovarian = tested on: OVCAR-3 ovarian
OVCAR-4 ovarian = tested on: OVCAR-4 ovarian
OVCAR-5 ovarian = tested on: OVCAR-5 ovarian
OVCAR-8 ovarian = tested on: OVCAR-8 ovarian
PC-3 prostate = tested on: PC-3 prostate
RPMI-8226 leukemia = tested on: RPMI-8226 leukemia
RXF 393 renal = tested on: RXF 393 renal
SF-268 CNS = tested on: SF-268 CNS
SF-295 CNS = tested on: SF-295 CNS
SF-539 CNS = tested on: SF-539 CNS
SK-MEL-2 melanoma = tested on: SK-MEL-2 melanoma
SK-MEL-28 melanoma = tested on: SK-MEL-28 melanoma
SK-MEL-5 melanoma = tested on: SK-MEL-5 melanoma
SK-OV-3 ovarian = tested on: SK-OV-3 ovarian
SN12C renal = tested on: SN12C renal
SNB-19 CNS = tested on: SNB-19 CNS
SNB-75 CNS = tested on: SNB-75 CNS
SR leukemia = tested on: SR leukemia
SW-620 colon = tested on: SW-620 colon
T-47D breast = tested on: T-47D breast
TK-10 renal = tested on: TK-10 renal
U251 CNS = tested on: U251 CNS
UACC-257 melanoma = tested on: UACC-257 melanoma
UACC-62 melanoma = tested on: UACC-62 melanoma
UO-31 renal = tested on: UO-31 renal
A498 renal = tested on: A498 renal
HOP-92 NSCLC = tested on: HOP-92 NSCLC

C=C1OC(=O)[C@]2([C@@H](/C=C/C)C=CC(=O)[C@H]2O)[C@@H]1O
TGI (786-0 renal): > 100 µM
TGI (A549 NSCLC): > 100 µM
TGI (ACHN renal): > 100 µM
TGI (CAKI-1 renal): > 100 µM
TGI (CCRF-CEM leukemia): > 100 µM
TGI (COLO 205 colon): > 100 µM
TGI (DU-145 prostate): > 100 µM
TGI (EKVX NSCLC): > 100 µM
TGI (HCC-2998 colon): > 100 µM
TGI (HCT-116 colon): > 100 µM
TGI (HCT-15 colon): > 100 µM
TGI (HL-60(TB) leukemia): > 100 µM
TGI (HOP-62 NSCLC): > 100 µM
TGI (HS 578T breast): > 100 µM
TGI (HT29 colon): > 100 µM
TGI (IGROV1 ovarian): > 100 µM
TGI (K-562 leukemia): > 100 µM
TGI (KM12 colon): > 100 µM
TGI (LOX IMVI melanoma): > 100 µM
TGI (M14 melanoma): > 100 µM
TGI (MALME-3M melanoma): > 100 µM
TGI (MCF7 breast): > 100 µM
TGI (MDA-MB-231 breast): > 100 µM
TGI (MDA-MB-435): > 100 µM
TGI (MDA-N): > 100 µM
TGI (MOLT-4 leukemia): > 100 µM
TGI (NCI-H226 lung): > 100 µM
TGI (NCI-H23 lung): > 100 µM
TGI (NCI-H460 lung): > 100 µM
TGI (NCI-H522 lung): > 100 µM
TGI (NCI/ADR-RES ovarian): > 100 µM
TGI (OVCAR-3 ovarian): > 100 µM
TGI (OVCAR-4 ovarian): > 100 µM
TGI (OVCAR-5 ovarian): > 100 µM
TGI (OVCAR-8 ovarian): > 100 µM
TGI (PC-3 prostate): > 100 µM
TGI (RPMI-8226 leukemia): > 100 µM
TGI (RXF 393 renal): > 100 µM
TGI (SF-268 CNS): > 100 µM
TGI (SF-295 CNS): > 100 µM
TGI (SF-539 CNS): > 100 µM
TGI (SK-MEL-2 melanoma): > 100 µM
TGI (SK-MEL-28 melanoma): > 100 µM
TGI (SK-MEL-5 melanoma): > 100 µM
TGI (SK-OV-3 ovarian): > 100 µM
TGI (SN12C renal): > 100 µM
TGI (SNB-19 CNS): > 100 µM
TGI (SNB-75 CNS): > 100 µM
TGI (SR leukemia): > 100 µM
TGI (SW-620 colon): > 100 µM
TGI (T-47D breast): > 100 µM
TGI (TK-10 renal): > 100 µM
TGI (U251 CNS): > 100 µM
TGI (UACC-257 melanoma): > 100 µM
TGI (UACC-62 melanoma): > 100 µM
TGI (UO-31 renal): > 100 µM

CN1C(=O)CC2CCCN2C1=O (stereo unspecified)
TGI (786-0 renal): > 100 µM
TGI (A498 renal): > 100 µM
TGI (A549 NSCLC): > 100 µM
TGI (ACHN renal): > 100 µM
TGI (CAKI-1 renal): > 100 µM
TGI (CCRF-CEM leukemia): > 100 µM
TGI (COLO 205 colon): > 100 µM
TGI (DU-145 prostate): > 100 µM
TGI (EKVX NSCLC): > 100 µM
TGI (HCC-2998 colon): > 100 µM
TGI (HCT-15 colon): > 100 µM
TGI (HOP-62 NSCLC): > 100 µM
TGI (HOP-92 NSCLC): > 100 µM
TGI (HS 578T breast): > 100 µM
TGI (HT29 colon): > 100 µM
TGI (IGROV1 ovarian): > 100 µM
TGI (K-562 leukemia): > 100 µM
TGI (KM12 colon): > 100 µM
TGI (LOX IMVI melanoma): > 100 µM
TGI (M14 melanoma): > 100 µM
TGI (MALME-3M melanoma): > 100 µM
TGI (MCF7 breast): > 100 µM
TGI (MDA-MB-231 breast): > 100 µM
TGI (MDA-MB-435): > 100 µM
TGI (MDA-N): > 100 µM
TGI (MOLT-4 leukemia): > 100 µM
TGI (NCI-H226 lung): > 100 µM
TGI (NCI-H23 lung): > 100 µM
TGI (NCI-H460 lung): > 100 µM
TGI (NCI-H522 lung): > 100 µM
TGI (NCI/ADR-RES ovarian): > 100 µM
TGI (OVCAR-3 ovarian): > 100 µM
TGI (OVCAR-4 ovarian): > 100 µM
TGI (OVCAR-5 ovarian): > 100 µM
TGI (OVCAR-8 ovarian): > 100 µM
TGI (PC-3 prostate): > 100 µM
TGI (RPMI-8226 leukemia): > 100 µM
TGI (RXF 393 renal): > 100 µM
TGI (SF-268 CNS): > 100 µM
TGI (SF-295 CNS): > 100 µM
TGI (SF-539 CNS): > 100 µM
TGI (SK-MEL-2 melanoma): > 100 µM
TGI (SK-MEL-28 melanoma): > 100 µM
TGI (SK-MEL-5 melanoma): > 100 µM
TGI (SK-OV-3 ovarian): > 100 µM
TGI (SNB-19 CNS): > 100 µM
TGI (SNB-75 CNS): > 100 µM
TGI (SR leukemia): > 100 µM
TGI (SW-620 colon): > 100 µM
TGI (T-47D breast): > 100 µM
TGI (TK-10 renal): > 100 µM
TGI (U251 CNS): > 100 µM
TGI (UACC-257 melanoma): > 100 µM
TGI (UACC-62 melanoma): > 100 µM
TGI (UO-31 renal): > 100 µM

Cc1ccc(S(=O)(=O)N/N=C2\CC3C4C=CC3C2C4)cc1 (stereo unspecified)
TGI (786-0 renal): > 100 µM
TGI (A498 renal): > 100 µM
TGI (A549 NSCLC): > 100 µM
TGI (ACHN renal): > 100 µM
TGI (CAKI-1 renal): > 100 µM
TGI (CCRF-CEM leukemia): > 100 µM
TGI (COLO 205 colon): > 100 µM
TGI (DU-145 prostate): > 100 µM
TGI (EKVX NSCLC): > 100 µM
TGI (HCC-2998 colon): > 100 µM
TGI (HCT-116 colon): > 100 µM
TGI (HCT-15 colon): > 100 µM
TGI (HL-60(TB) leukemia): > 100 µM
TGI (HOP-62 NSCLC): > 100 µM
TGI (HOP-92 NSCLC): > 100 µM
TGI (HS 578T breast): > 100 µM
TGI (HT29 colon): > 100 µM
TGI (IGROV1 ovarian): > 100 µM
TGI (K-562 leukemia): > 100 µM
TGI (KM12 colon): > 100 µM
TGI (LOX IMVI melanoma): > 100 µM
TGI (M14 melanoma): > 100 µM
TGI (MALME-3M melanoma): > 100 µM
TGI (MCF7 breast): > 100 µM
TGI (MDA-MB-231 breast): > 100 µM
TGI (MDA-MB-435): > 100 µM
TGI (MDA-N): > 100 µM
TGI (MOLT-4 leukemia): > 100 µM
TGI (NCI-H226 lung): > 100 µM
TGI (NCI-H23 lung): > 100 µM
TGI (NCI-H460 lung): > 100 µM
TGI (NCI-H522 lung): > 100 µM
TGI (NCI/ADR-RES ovarian): > 100 µM
TGI (OVCAR-3 ovarian): > 100 µM
TGI (OVCAR-4 ovarian): > 100 µM
TGI (OVCAR-5 ovarian): > 100 µM
TGI (OVCAR-8 ovarian): > 100 µM
TGI (PC-3 prostate): > 100 µM
TGI (RXF 393 renal): > 100 µM
TGI (SF-268 CNS): > 100 µM
TGI (SF-295 CNS): > 100 µM
TGI (SF-539 CNS): > 100 µM
TGI (SK-MEL-2 melanoma): > 100 µM
TGI (SK-MEL-28 melanoma): > 100 µM
TGI (SK-MEL-5 melanoma): > 100 µM
TGI (SK-OV-3 ovarian): > 100 µM
TGI (SN12C renal): > 100 µM
TGI (SNB-19 CNS): > 100 µM
TGI (SW-620 colon): > 100 µM
TGI (T-47D breast): > 100 µM
TGI (TK-10 renal): > 100 µM
TGI (U251 CNS): > 100 µM
TGI (UACC-257 melanoma): > 100 µM
TGI (UACC-62 melanoma): > 100 µM
TGI (UO-31 renal): 40.2 µM
